Values after ≈ are worked out from the molar mass of the structure shown.
System: Mycobacterium tuberculosis H37Rv strains
Test: In vitro assay for antimicrobial susceptibility (microplate Alamar blue MIC)
Type: cell-based
Details: Mycobacterium tuberculosis, H37RV, 7H9, Alamar blue, inhibition ≧90%; read-out: MIC (μg/mL) against H37Rv

| SMILES | MIC [µg/mL] |
| --- | --- |
| COC1CCC(/N=c2\cc3n(-c4ccc(F)cc4)c4ccccc4nc-3cc2Nc2ccccn2)CC1 (stereo not shown) [TBI-1078, 5-(4-Fluorophenyl)-3-(4-methoxycyclohexyl)imino-2-(2-pyridyl)amino-3,5-dihydrophenazine] | 0.028 (≈ 0.0567 µM) |

Same assay, conditions: Mycobacterium tuberculosis, H37RV, in vitro, Mycobacterium tuberculosis H37Rv strains; read-out: MIC (μg/mL) against H37Rv

| SMILES | MIC [µg/mL] |
| --- | --- |
| COc1ncccc1Nc1cc2nc3ccc(F)cc3n(-c3ccc(Cl)c(Cl)c3)c-2c/c1=N\C1CCC1 [TBI-886, 7-Fluoro-5-(3,4-dichlorophenyl)-3-cyclobutylimino-2-(2-methoxy-3-pyridyl)amino-3,5-dihydrophenazine] | 0.06 (≈ 0.112 µM) |
| Cc1ccc(Nc2cc3nc4cc(C#N)ccc4n(-c4ccc(F)cc4)c-3c/c2=N\C(C)C)cn1 [TBI-1067, 8-Cyano-5-(4-fluorophenyl)-3-(1-methylethyl)imino-2-(6-methyl-3-pyridyl)amino-3,5-dihydrophenazine] | 0.117 (≈ 0.253 µM) |
| CN1CCC(/N=c2\cc3n(-c4ccc(C(F)(F)F)cc4)c4ccccc4nc-3cc2Nc2cccnc2)CC1 [TBI-689, 5-(4-Trifluoromethylphenyl)-3-(N-methyl-4-piperidyl)imino-2-(3-pyridyl)amino-3,5-dihydrophenazine] | 0.125 (≈ 0.236 µM) |
| Cc1ccc(-n2c3c/c(=N\C4CCCCC4)c(Nc4cncc(C)c4)cc-3nc3ccccc32)cc1 [TBI-329, 5-(4-Methylphenyl)-3-cyclohexylimino-2-(5-methyl-3-pyridyl)amino-3,5-dihydrophenazine] | 0.092 (≈ 0.194 µM) |
| Cc1ccc(Nc2cc3nc4ccccc4n(-c4ccc(F)cc4)c-3c/c2=N\[C@H]2CC[C@H](O)CC2)cn1 [TBI-906, 5-(4-Fluorophenyl)-3-(1′,4′-trans-4-hydroxycyclohexyl)imino-2-(6-methyl-3-pyridyl)amino-3,5-dihydrophenazine] | 0.5 (≈ 1.01 µM) |
| COC1CCC(/N=c2\cc3n(-c4ccc(NC(C)=O)cc4)c4ccccc4nc-3cc2Nc2ccc(C)nc2)CC1 (stereo not shown) [TBI-1229] | 0.482 (≈ 0.882 µM) |
| Cc1ccc(-n2c3c/c(=N\CCN4CCOCC4)c(Nc4cccnc4)cc-3nc3ccccc32)cc1 [TBI-302, 5-(4-Methylphenyl)-3-(2-morpholinoethyl)imino-2-(3-pyridyl)amino-3,5-dihydro-phenazine] | 0.125 (≈ 0.255 µM) |
| CC(C)/N=c1\cc2n(-c3ccc(Br)cc3)c3ccccc3nc-2cc1Nc1cccnc1 [TBI-088, 5-(4-Bromophenyl)-3-(1-methylethyl)imino-2-(3-pyridyl)amino-3,5-dihydrophenazine] | 0.023 (≈ 0.0475 µM) |
| Cc1ncccc1Nc1cc2nc3ccccc3n(-c3ccc(F)cc3)c-2c/c1=N\C1CCSCC1 [TBI-1043, 5-(4-Fluorophenyl)-3-(4-tetrahydrothiopyranyl)imino-2-(2-methyl-3-pyridyl)amino-3,5-dihydrophenazine] | 0.021 (≈ 0.0424 µM) |
| Cc1ccc(Nc2cc3nc4cc(F)ccc4n(-c4ccc(OC(F)(F)F)cc4)c-3c/c2=N\C2CC2)cn1 [TBI-864, 8-Fluoro-5-(4-trifluoromethoxyphenyl)-3-cyclopropylimino-2-(6-methyl-3-pyridyl)amino-3,5-dihydrophenazine] | 0.057 (≈ 0.11 µM) |
| COc1ncccc1Nc1cc2nc3ccccc3n(-c3ccc(C(F)(F)F)cc3)c-2c/c1=N\C1CC1 [TBI-718, 5-(4-Trifluoromethylphenyl)-3-cyclopropylimino-2-(2-methoxy-3-pyridyl)amino-3,5-dihydrophenazine] | 0.015 (≈ 0.0299 µM) |
| Cc1ccc(Nc2cc3nc4ccccc4n(-c4ccc(F)cc4)c-3c/c2=N\CC2CCCN(C)C2)cn1 (stereo not shown) [TBI-902, 5-(4-Fluorophenyl)-3-(N-methyl-3-piperidylmethyl)imino-2-(6-methyl-3-pyridyl)amino-3,5-dihydrophenazine] | 0.058 (≈ 0.114 µM) |
| Brc1ccc(-n2c3c/c(=N\C4CCOCC4)c(Nc4cccnc4)cc-3nc3ccccc32)cc1 [TBI-093, 5-(4-Bromophenyl)-3-(4-tetrahydropyranyl)imino-2-(3-pyridyl)amino-3,5-dihydrophenazine] | 0.163 (≈ 0.31 µM) |
| Cc1ccc(Nc2cc3nc4cc(F)ccc4n(-c4ccc(Cl)cc4)c-3c/c2=N\C(C)C)cn1 [TBI-943, 8-Fluoro-5-(4-chlorophenyl)-3-(1-methylethyl)imino-2-(6-methyl-3-pyridyl)amino-3,5-dihydrophenazine] | 0.06 (≈ 0.127 µM) |
| Clc1ccc(-n2c3c/c(=N\C4CCOCC4)c(Nc4cccnc4)cc-3nc3ccccc32)cc1Cl [TBI-351, 5-(3,4-Dichlorophenyl)-3-(4-tetrahydropyranyl)imino-2-(3-pyridyl)amino-3,5-dihydrophenazine] | 0.079 (≈ 0.153 µM) |
| COc1ncccc1Nc1cc2nc3ccccc3n(-c3ccc(OC(F)(F)F)cc3)c-2c/c1=N\C1CCOCC1 [TBI-167, 5-(4-Trifluoromethoxyphenyl)-3-(4-tetrahydropyranyl)imino-2-(2-methoxy-3-pyridyl)amino-3,5-dihydrophenazine] | 0.016 (≈ 0.0285 µM) |
| CC(C)/N=c1\cc2n(-c3ccccc3)c3ccccc3nc-2cc1Nc1cccnc1 [TBI-054, 5-Phenyl-3-(1-methyethyl)imino-2-(3-pyridyl)amino-3,5-dihydrophenazine] | 0.03 (≈ 0.074 µM) |
| Cc1ccc(Nc2cc3nc4cc(F)ccc4n(-c4ccc(Cl)c(Cl)c4)c-3c/c2=N\C2CCOCC2)cn1 [TBI-873, 8-Fluoro-5-(3,4-dichlorophenyl)-3-(4-tetrahydropyranyl)imino-2-(6-methyl-3-pyridyl)amino-3,5-dihydrophenazine] | 0.076 (≈ 0.139 µM) |

| SMILES | MIC [µg/mL] |
| --- | --- |
| Cc1ccc(Nc2cc3nc4cc(F)ccc4n(-c4ccc(OC(F)(F)F)cc4)c-3c/c2=N\C2CCCCC2)cn1 [TBI-865, 8-Fluoro-5-(4-trifluoromethoxyphenyl)-3-cyclohexylimino-2-(6-methyl-3-pyridyl)amino-3,5-dihydrophenazine] | 0.031 (≈ 0.0552 µM) |
| CN1CCC(/N=c2\cc3n(-c4ccccc4)c4ccccc4nc-3cc2Nc2cccnc2)CC1 [TBI-055, 5-Phenyl-3-(N-methyl-4-piperidyl)imino-2-(3-pyridyl)amino-3,5-dihydrophenazine] | 0.5 (≈ 1.09 µM) |
| COc1ncccc1Nc1cc2nc3ccc(F)cc3n(-c3ccc(Cl)c(Cl)c3)c-2c/c1=N\C(C)C [TBI-899, 7-Fluoro-5-(3,4-dichlorophenyl)-3-(1-methylethyl)imino-2-(2-methoxy-3-pyridyl)amino-3,5-dihydrophenazine] | 0.125 (≈ 0.239 µM) |
| Fc1ccc(-n2c3c/c(=N\CCN4CCOCC4)c(Nc4cccnc4)cc-3nc3ccccc32)cc1 [TBI-680, 5-(4-Fluorophenyl)-3-(2-morpholinoethyl)imino-2-(3-pyridyl)amino-3,5-dihydrophenazine] | 0.5 (≈ 1.01 µM) |
| COC1CCC(/N=c2\cc3n(-c4ccc(F)cc4)c4ccccc4nc-3cc2Nc2ccc(C)nc2)CC1 (stereo not shown) [TBI-1001, 5-(4-Fluorophenyl)-3-(4-methoxycyclohexyl)imino-2-(6-methyl-3-pyridyl)amino-3,5-dihydrophenazine] | 0.06 (≈ 0.118 µM) |
| c1ccc(-n2c3c/c(=N\CCN4CCOCC4)c(Nc4cccnc4)cc-3nc3ccccc32)cc1 [TBI-056, 5-Phenyl-3-(2-morpholinoethyl)imino-2-(3-pyridyl)amino-3,5-dihydrophenazine] | 0.25 (≈ 0.525 µM) |
| COc1ncccc1Nc1cc2nc3ccccc3n(-c3cccc(F)c3)c-2c/c1=N\C(C)C [TBI-523] | 0.06 (≈ 0.132 µM) |
| COc1ncccc1Nc1cc2nc3ccccc3n(-c3ccc(F)cc3)c-2c/c1=N\C1CCSCC1 [TBI-1042, 5-(4-Fluorophenyl)-3-(4-tetrahydrothiopyranyl)imino-2-(2-methoxy-3-pyridyl)amino-3,5-dihydrophenazine] | 0.034 (≈ 0.0665 µM) |
| COC1CCC(/N=c2\cc3n(-c4ccc(Br)cc4)c4ccccc4nc-3cc2Nc2cccnc2)CC1 (stereo not shown) [TBI-091, 5-(4-Bromophenyl)-3-(4-methoxycyclohexyl)imino-2-(3-pyridyl)amino-3,5-dihydrophenazine] | 0.062 (≈ 0.112 µM) |
| COc1ccc(Nc2cc3nc4ccccc4n(-c4ccc(F)cc4)c-3c/c2=N\[C@H]2CC[C@H](OC)CC2)cn1 [TBI-933, 5-(4-Fluorophenyl)-3-(1′,4′-trans-4-methoxycyclohexyl)imino-2-(6-methoxy-3-pyridyl)amino-3,5-dihydrophenazine] | 0.175 (≈ 0.334 µM) |
| Cc1ccc(-n2c3c/c(=N\C4CCCCC4)c(Nc4cccnc4C)cc-3nc3ccccc32)cc1 [TBI-312, 5-(4-Methylphenyl)-3-cyclohexylimino-2-(2-methyl-3-pyridyl)amino-3,5-dihydrophenazine] | 0.053 (≈ 0.112 µM) |
| COc1ncccc1Nc1cc2nc3ccccc3n(-c3ccc(OC(F)(F)F)cc3)c-2c/c1=N\C1CCN(C)CC1 [TBI-168, 5-(4-Trifluoromethoxyphenyl)-3-(N-methyl-4-piperidyl)imino-2-(2-methoxy-3-pyridyl)amino-3,5-dihydrophenazine] | 0.109 (≈ 0.19 µM) |
| O[C@H]1CC[C@H](/N=c2\cc3n(-c4ccc(F)cc4)c4ccccc4nc-3cc2Nc2cccnc2)CC1 [TBI-921, 5-(4-Fluorophenyl)-3-(1′,4′-trans-4-hydroxycyclohexyl)imino-2-(3-pyridyl)amino-3,5-dihydrophenazine] | 0.434 (≈ 0.905 µM) |
| Clc1ccc(-n2c3c/c(=N\CCN4CCOCC4)c(Nc4cccnc4)cc-3nc3ccccc32)cc1 [TBI-433, 5-(4-Chlorophenyl)-3-(2-morpholinoethyl)imino-2-(3-pyridyl)amino-3,5-dihydrophenazine] | 0.25 (≈ 0.489 µM) |
| COc1ccc2nc3cc(Nc4ccc(C)nc4)/c(=N/C4CCC(OC)CC4)cc-3n(-c3ccc(Cl)cc3)c2c1 (stereo not shown) [TBI-867, 7-Methoxy-5-(4-chlorophenyl)-3-(4-methoxycyclohexyl)imino-2-(6-methyl-3-pyridyl-amino)-3,5-dihydrophenazine] | 0.058 (≈ 0.105 µM) |
| COc1ncccc1Nc1cc2nc3ccccc3n(-c3ccc(Cl)cc3)c-2c/c1=N\C1CCN(C)CC1 [TBI-440, 5-(4-Chlorophenyl)-3-(N-methyl-4-piperidyl)imino-2-(2-methoxy-3-pyridyl)amino-3,5-dihydrophenazine] | 0.06 (≈ 0.114 µM) |
| CC(=O)Nc1ccc(Nc2cc3nc4ccccc4n(-c4ccc(F)cc4)c-3c/c2=N\C2CCN(CC(C)C)CC2)cn1 [TBI-913, 5-(4-Fluorophenyl)-3-(N-isobutyl-4-piperidyl)imino-2-(6-acetamino-3-pyridyl)amino-3,5-dihydrophenazine] | 0.144 (≈ 0.249 µM) |

Same assay, conditions: in vitro, Mycobacterium tuberculosis H37Rv strains

| SMILES | MIC (μg/mL) against H37Rv [µg/mL] |
| --- | --- |
| COc1ncccc1Nc1cc2nc3ccc(F)cc3n(-c3ccc(Cl)cc3)c-2c/c1=N\C(C)C [TBI-926, 7-Fluoro-5-(4-chlorophenyl)-3-(1-methylethyl)imino-2-(2-methoxy-3-pyridyl)amino-3,5-dihydrophenazine] | 0.103 (≈ 0.211 µM) |
